The subject of data set [1] is M. tuberculosis H37Rv expressing the green fluorescent protein (H37Rv-GFP). The data set is described as follows: microbe, parasite or virus in culture. The data set is classed as cell-based. The conditions noted are these: Mycobacterium tuberculosis, H37RV, 120 h; read-out: QUM (MIC50).
Data set [2] concerns Raw 264.7 cells infected with H37Rv-GFP. The data set is described as follows: microbe, parasite or virus in culture. The data set is classed as cell-based, M. tuberculosis. The conditions noted are these: Mycobacterium tuberculosis, H37RV, 120 h; read-out: QIM (MIC50).

Values after ≈ are worked out from the molar mass of the structure shown.

The molecule `COc1ccc(NC(=O)c2cc3sc(N4CC5CC4CN5C(=O)OC(C)(C)C)nc3s2)cc1` (stereo not drawn) [Compound 93] had a melting point of 249 °C. Moreover, the MIC50 in data set [1] is above 20 µM. In data set [2], the MIC50 is above 20 µM.

As to `CCC1CN(c2nc3sc(C(=O)Nc4ccc5oc(C)nc5c4)cc3s2)CCO1` (stereo not drawn) [Compound 153], the melting point is 214 °C. Moreover, the MIC50 in data set [1] was below 1 µM. Besides, in data set [2], the MIC50 was below 1 µM.

With `O=C(Nc1ccc(C(F)(F)F)cc1)c1cc2sc(N3CCOCC3)nc2s1` [Compound 107], the melting point was 259.3 °C. In addition, the MIC50 in data set [1] was above 20 µM. Further, the MIC50 in data set [2] is below 1 µM.

For `Cc1nc2cc(NC(=O)c3cc4sc(N5CCOC(C(=O)N(C)C)C5)nc4s3)ccc2o1` (stereo not drawn) [Compound 169], the melting point was determined as 247.5 °C. In data set [1], the MIC50 lay within 1 to 20 µM (≈ 0.472 to 9.43 µg/mL). The MIC50 in data set [2] lay within 1 to 20 µM (≈ 0.472 to 9.43 µg/mL).

As for `O=C(Nc1cccc(Oc2ccccc2)c1)c1cc2sc(N3CCOCC3)nc2s1` [Compound 87], the melting point was found to be 169.5 °C. Moreover, the MIC50 in data set [1] lay in the range of 1 to 20 µM (≈ 0.438 to 8.75 µg/mL). Also, the MIC50 in data set [2] was in the range of 1 to 20 µM (≈ 0.438 to 8.75 µg/mL).

`CCc1cc2oc(C)nc2cc1NC(=O)c1cc2sc(N3CCOCC3)nc2s1` [Compound 150] had a melting point of 244 °C. Further, the MIC50 in data set [1] is above 20 µM. Besides, the MIC50 in data set [2] was above 20 µM.

For the molecule `COc1ccc(NC(=O)c2ccc3sc(N4CCCCC4)nc3c2)cc1` [Compound 70], the melting point is 222 °C. In addition, in data set [1], the MIC50 was above 20 µM. The MIC50 in data set [2] is above 20 µM.

With `Cc1nc2ccc(NC(=O)c3cc4sc(N5CCOCC5)nc4s3)cc2o1` [Compound 85], the melting point was 273.6 °C. For the same molecule, the MIC50 in data set [1] is below 1 µM. The MIC50 in data set [2] was below 1 µM.

`COc1ccc(NC(=O)c2cc3sc(N4CCOCC4)nc3s2)cc1` [Compound 66] yielded a melting point of 248.8 °C. Besides, the MIC50 in data set [1] was in the range of 1 to 20 µM (≈ 0.375 to 7.51 µg/mL). In addition, the MIC50 in data set [2] was below 1 µM.

`O=C(Nc1ccc(C(F)(F)F)cc1)c1cc2sc(N3CCCCC3)nc2s1` [Compound 41] displayed a melting point of 289.2 °C. Also, the MIC50 in data set [1] was above 20 µM. For the same molecule, in data set [2], the MIC50 is below 1 µM.

In turn, `CC(CNC(=O)c1ccc2nc(N3CCCCC3)sc2c1)c1ccccc1` (stereo not drawn) [Compound 1] gave a melting point of 196 °C. Moreover, the MIC50 in data set [1] is above 20 µM. Further, in data set [2], the MIC50 was above 20 µM.

`COc1ccc(CN(c2nc3sc(C(=O)Nc4ccc(OC)cc4)cc3s2)C(C)C)cc1` [Compound 121]: the melting point was 131 °C. In data set [1], the MIC50 was above 20 µM. Further, in data set [2], the MIC50 was below 1 µM.

As for `Cc1nc2cc(NC(=O)c3cn4nc(N5CCOCC5)sc4n3)ccc2o1` [Compound 189], the melting point stood at 311 °C. In addition, the MIC50 in data set [1] is above 20 µM. In addition, the MIC50 in data set [2] is above 20 µM.

Consider `Cc1nc2cc(NC(=O)c3cc4sc(N5CCC(CO)CC5)nc4s3)ccc2o1` [Compound 144], for which the melting point stood at 196.4 °C. Further, the MIC50 in data set [1] is below 1 µM. Besides, the MIC50 in data set [2] was below 1 µM.

Molecule `O=C(Nc1ccc(-n2ccnc2)cc1)c1cc2sc(N3CCOCC3)nc2s1` [Compound 182] returned a melting point of 266 °C. The MIC50 in data set [1] is above 20 µM. Besides, the MIC50 in data set [2] is above 20 µM.

As for `Cc1nc2cc(NC(=O)c3cc4sc(N5CCC(C(=O)N(C)C)C5)nc4s3)ccc2o1` (stereo not drawn) [Compound 192], the melting point turned out to be 274 °C. Further, in data set [1], the MIC50 was 1 to 20 µM (≈ 0.456 to 9.11 µg/mL). Further, the MIC50 in data set [2] lay in the range of 1 to 20 µM (≈ 0.456 to 9.11 µg/mL).

Molecule `COc1ccc(OCCNC(=O)c2cc3sc(N4CCOCC4)nc3s2)cc1` [Compound 82] displayed a melting point of 172.1 °C. Moreover, the MIC50 in data set [1] is above 20 µM. In data set [2], the MIC50 is 1 to 20 µM (≈ 0.42 to 8.39 µg/mL).

As for `Nc1ccc(OC(=O)c2cc3nc(N4CCCCC4)sc3s2)cc1` [Compound 9], the melting point worked out at 153 °C. In data set [1], the MIC50 is above 20 µM. The MIC50 in data set [2] was above 20 µM.

Molecule `Cc1nc2cc(NC(=O)c3sc4nc(N5CCOCC5)sc4c3-c3ccccc3)ccc2o1` [Compound 166] had a melting point of 285 °C. For the same molecule, in data set [1], the MIC50 was above 20 µM. Also, the MIC50 in data set [2] is above 20 µM.

Molecule `CN(C)C(=O)C1CCN(c2nc3sc(C(=O)Nc4ccc5oc(CN6CCOCC6)nc5c4)cc3s2)CC1` [Compound 196] showed a melting point of 239 °C. Also, the MIC50 in data set [1] lay in the range of 1 to 20 µM (≈ 0.555 to 11.1 µg/mL). Moreover, the MIC50 in data set [2] was in the range of 1 to 20 µM (≈ 0.555 to 11.1 µg/mL).

Molecule `O=C(Nc1ccc(F)nc1)c1cc2sc(N3CCC(CO)CC3)nc2s1` [Compound 143] showed a melting point of 240.8 °C. Also, in data set [1], the MIC50 is below 1 µM. Also, the MIC50 in data set [2] was below 1 µM.

`O=C(Nc1ccc(F)c(F)c1)c1cc2nc(N3CCCCC3)sc2s1` [Compound 3]: the melting point amounted to 246.3 °C. The MIC50 in data set [1] fell in the range of 1 to 20 µM (≈ 0.379 to 7.59 µg/mL). For the same molecule, the MIC50 in data set [2] is below 1 µM.

For `CCN(Cc1ccc(OC)cc1)c1nc2sc(C(=O)Nc3ccc(OC)cc3)cc2s1` [Compound 114], the melting point amounted to 112 °C. For the same molecule, in data set [1], the MIC50 lay within 1 to 20 µM (≈ 0.454 to 9.07 µg/mL). Further, in data set [2], the MIC50 was below 1 µM.

In the case of `CN(C)C(=O)C1CCN(c2nc3sc(C(=O)Nc4ccc5oc(CCc6ccc(F)cc6)nc5c4)cc3s2)CC1` [Compound 197], the melting point amounted to 259 °C. Besides, in data set [1], the MIC50 is above 20 µM. Moreover, the MIC50 in data set [2] was below 1 µM.

Take `Cc1nc2cc(NC(=O)c3cc4sc(N5CCC(C(=O)N(C)C)CC5)nc4s3)ccc2o1` [Compound 138]: the melting point came to 284.2 °C. Moreover, the MIC50 in data set [1] was below 1 µM. For the same molecule, the MIC50 in data set [2] was below 1 µM.

`COc1ccc(CNc2nc3sc(C(=O)Nc4ccc(OC)cc4)cc3s2)cc1` [Compound 63] gave a melting point of 243 °C. For the same molecule, the MIC50 in data set [1] is above 20 µM. The MIC50 in data set [2] is below 1 µM.

Take `Cn1cnc2cc(NC(=O)c3cc4sc(N5CCOCC5)nc4s3)ccc21` [Compound 116]: the melting point worked out at 291 °C. In addition, in data set [1], the MIC50 is above 20 µM. Besides, in data set [2], the MIC50 lay in the range of 1 to 20 µM (≈ 0.4 to 7.99 µg/mL).

Molecule `N#Cc1ccc(NC(=O)c2cc3sc(N4CCOCC4)nc3s2)cc1` [Compound 112] gave a melting point of 212 °C. The MIC50 in data set [1] was above 20 µM. For the same molecule, in data set [2], the MIC50 was below 1 µM.

Molecule `O=C(Nc1ccc(Cl)cc1)c1cc2nc(N3CCCCC3)sc2s1` [Compound 29] gave a melting point of 230 °C. Further, in data set [1], the MIC50 lay in the range of 1 to 20 µM (≈ 0.378 to 7.56 µg/mL). In addition, in data set [2], the MIC50 was in the range of 1 to 20 µM (≈ 0.378 to 7.56 µg/mL).

The molecule `Cc1nnc(-c2ccc(NC(=O)c3cc4sc(N5CCC(O)CC5)nc4s3)cc2)o1` [Compound 123] had a melting point of 334.4 °C. The MIC50 in data set [1] was above 20 µM. Also, in data set [2], the MIC50 was above 20 µM.

The molecule `COc1ccc(NC(=O)c2cc3sc(N4CCN5CCCC5C4)nc3s2)cc1` (stereo not drawn) [Compound 100] came in with a melting point of 195 °C. The MIC50 in data set [1] was 1 to 20 µM (≈ 0.415 to 8.29 µg/mL). In addition, the MIC50 in data set [2] was below 1 µM.

`O=C(c1cc2sc(N3CCOCC3)nc2s1)N1CCC(Cc2ccc(Cl)cc2)CC1` [Compound 173] returned a melting point of 167.2 °C. Moreover, the MIC50 in data set [1] is above 20 µM. In addition, the MIC50 in data set [2] is above 20 µM.

`COc1ccc(CCNC(=O)c2cc3sc(N4CCCCC4)nc3s2)cc1` [Compound 42] gave a melting point of 177.2 °C. In addition, in data set [1], the MIC50 was in the range of 1 to 20 µM (≈ 0.402 to 8.03 µg/mL). In addition, in data set [2], the MIC50 was below 1 µM.

`CN(C)C(=O)C1CCN(c2nc3sc(C(=O)Nc4ccc5oc(-c6ccc(F)cc6)nc5c4)cc3s2)CC1` [Compound 171] gave a melting point of 323 °C. The MIC50 in data set [1] was above 20 µM. For the same molecule, in data set [2], the MIC50 is below 1 µM.

(Values after US11279714B2, “Anti-infective compounds” (priority 2014, dated 2022).)
